According to BindingDB's records for doi:10.7270/Q2HD7T4S (Sanford-Burnham Center For Chemical Genomics, 2008):

Molecular target: E3 ubiquitin-protein ligase XIAP (Homo sapiens, UniProt P98170)
Test: small molecules displacing peptide from XIAP – biochemical, IAP family, fluorescence polarization (AID 1018)

Chain of E3 ubiquitin-protein ligase XIAP (P98170 whole entry): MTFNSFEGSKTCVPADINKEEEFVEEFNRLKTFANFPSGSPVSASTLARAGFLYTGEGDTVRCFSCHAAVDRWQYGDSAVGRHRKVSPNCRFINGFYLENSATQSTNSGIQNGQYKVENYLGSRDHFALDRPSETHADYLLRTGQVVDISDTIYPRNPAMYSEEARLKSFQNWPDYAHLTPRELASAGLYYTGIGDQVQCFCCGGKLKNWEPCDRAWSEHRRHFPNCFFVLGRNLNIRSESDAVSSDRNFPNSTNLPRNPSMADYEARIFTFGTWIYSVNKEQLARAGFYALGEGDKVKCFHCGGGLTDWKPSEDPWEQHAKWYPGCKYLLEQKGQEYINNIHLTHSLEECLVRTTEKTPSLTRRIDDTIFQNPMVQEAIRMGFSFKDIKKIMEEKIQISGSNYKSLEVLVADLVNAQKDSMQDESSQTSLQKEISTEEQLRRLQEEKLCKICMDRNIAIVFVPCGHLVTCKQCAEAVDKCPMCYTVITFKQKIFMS

IC50 [µM]	Structure (SMILES)
> 100	COc1cc(CN=Nc2nc(Nc3ccc(C)cc3)nc(-n3nc(C)cc3C)n2)cc(OC)c1OC
> 100	COc1cc(CN=Nc2cc(C)nc(NS(=O)(=O)c3ccc(C)cc3)n2)ccc1O
> 100	Cc1cc(=O)[nH]c(N=NC(CC(C)C)CC(C)C)n1
> 100	O=C(O)c1cccc(-n2c(O)c3c(c2O)CC(Cl)=CC3)c1 [3-[5-chloranyl-1,3-bis(oxidanylidene)-3a,4,7,7a-tetrahydroisoindol-2-yl]benzoic acid]
> 100	COc1ccc(C(=O)C2C(=O)C(=O)N(CC3CCCO3)C2c2cccc(OC)c2)cc1 (stereo not given) [(4Z)-4-[hydroxy-(4-methoxyphenyl)methylene]-5-(3-methoxyphenyl)-1-(tetrahydrofurfuryl)pyrrolidine-2,3-quinone]
> 100	O=C(CC=Nc1ccc(Nc2ccccc2)cc1)c1cccs1 [(E)-3-(4-anilinoanilino)-1-thiophen-2-yl-2-propen-1-one]
> 100	COc1cccc(C(=O)CC=Nc2cc(C)ccc2O)c1 [MLS000088060]
> 100	COc1ccc(CN=Nc2nc(N3CCCC3)nc(N3CCCC3)n2)cc1 [MLS000704198]
> 100	CCOc1ccccc1NC(=O)C1C(C)=NC(=S)NC1c1cccs1 (stereo not given) [N-(2-ethoxyphenyl)-6-methyl-2-sulfanylidene-4-thiophen-2-yl-3,4-dihydro-1H-pyrimidine-5-carboxamide]
> 100	Cc1cccc(N(CC(N)=O)c2sc(=O)n(-c3ccccc3)c2O)c1 [SMR000009552]
